Results published in patent US10548316B2, “Diarylazole compound and harmful organism control agent” (Nippon Soda Co., Ltd., priority 2015, dated 2020).

Tested on: not given
Assay: not given
Conditions: not given

| melting point | Compound |
| --- | --- |
| 154 to 156 °C | CCS(=O)(=O)c1cc(C(F)(F)F)ccc1-n1nnc(-c2ccc(C(F)(F)F)cc2)c1C [Compound 4-6, 1-(2-(Ethylsulfonyl)-4-(trifluoromethyl)phenyl)-5-methyl-4-(4-(trifluoromethyl)phenyl)-1H-1,2,3-triazole] |
| 178 to 179 °C | CCS(=O)(=O)c1cc(C(F)(F)F)ccc1-n1cc(-c2ccc(OC(F)(F)F)cc2)nn1 [Compound 4-8, 1-(2-(Ethylsulfonyl)-4-(trifluoromethyl)phenyl)-4-(4-(trifluoromethoxy)phenyl)-1H-1,2,3-triazole] |
| 110 to 111 °C | CCSc1cc(C(F)(F)F)ccc1-n1cc(-c2ccc(OC(F)(F)F)cc2)nn1 [Compound 4-7, 1-(2-(Ethylthio)-4-(trifluoromethyl)phenyl)-4-(4-(trifluoromethoxy)phenyl)-1H-1,2,3-triazole] |
| 79 to 80 °C | CCSc1cc(C(F)(F)F)ccc1-n1nnc(-c2ccc(C(F)(F)F)cc2)c1C [Compound 4-5, 1-(2-(Ethylthio)-4-(trifluoromethyl)phenyl)-5-methyl-4-(4-(trifluoromethyl)phenyl)-1H-1,2,3-triazole] |

Tested on: Pseudaletia separata
Assay: Efficacy test against Pseudaletia separata (artificial diet)
Format: in vivo
Conditions: 1 μl emulsion (I) (5% active ingredient) mixed in 0.8 g artificial diet; second-instar larvae; 25° C.; fifth day
Method: (§1) 5 parts of the compound of the present invention, 93.6 parts of dimethylformamide, and 1.4 parts of polyoxyethylene alkylaryl ether were mixed and dissolved to prepare an emulsion (I) of 5% of the active ingredient.
(§2) The insect mortality rate and the control rate were calculated by the following formula. Insect mortality rate (%)=(number of dead insects/number of sample insects)×100 Prevention rate=[1−(Nt)/(Nc)]×100
0.8 g of commercially available artificial diet (Insecta US, manufactured by Nosan Corporation) and 1 μl of emulsion (1) were well mixed and 0.2 g of the resulting mixture was packed in a plastic test container (1.4 ml) per each treatment group to prepare test feeds.
2 second-instar larvae of Pseudaletia separata were inoculated into each treatment group and sealed with a plastic lid. The plastic test containers were placed in a thermostatic chamber with a temperature of 25° C., and the insect mortality rate and the food intake amount were investigated on the fifth day. The test was repeated twice.
Further, a test under the same conditions except that the compound of the present invention was removed from emulsion (I) was conducted as a solvent control group.

| Compound | food intake amount in ratio to the solvent control group |
| --- | --- |
| CCS(=O)(=O)c1cccnc1-n1ncc(-c2ccc(OC(F)(F)F)cc2)c1N [Compound 2-10] | ≤ 10% |

Same assay, conditions: in vivo

| Compound | insect mortality rate |
| --- | --- |
| CCS(=O)(=O)c1cc(C(F)(F)F)cnc1-n1cc(-c2ccc(OC(F)(F)F)cc2)cn1 [Compound 2-6] | 100% |
| CCS(=O)(=O)c1cc(C(F)(F)F)ccc1-n1ncc(-c2cccc(OC(F)(F)F)c2)c1N [Compound 1-34] | 100% |
| CCS(=O)(=O)c1cc(C(F)(F)F)ccc1-n1ncc(-c2ccc(C(F)(F)C(F)(F)F)cc2)c1N [Compound 1-31] | 100% |
| CCS(=O)(=O)c1cc(C(F)(F)F)ccc1-n1cc(-c2ccc(OC(F)(F)F)cc2)cn1 [Compound 1-14] | 100% |
| CCS(=O)(=O)c1cc(C(F)(F)F)ccc1-n1cc(-n2cc(C(F)(F)C(F)(F)F)cn2)cn1 [Compound 1-51] | 100% |
| CCS(=O)(=O)c1cc(C(F)(F)F)ccc1-n1ncc(-c2ccc(C(F)(F)F)nc2)c1N [Compound 1-25] | 100% |
| CCS(=O)(=O)c1cc(C(F)(F)F)ccc1-n1ncc(-c2ccc(OC(F)(F)F)cc2)c1Br [Compound 1-20] | 100% |
| CCS(=O)(=O)c1cc(C(F)(F)F)ccc1-n1cc(-n2cc(C(F)(F)F)cn2)cn1 [Compound 1-50] | 100% |
| CCS(=O)(=O)c1cccnc1-n1ncc(-c2ccc(C(F)(F)C(F)(F)F)cc2)c1C [Compound 2-9] | 100% |
| CCS(=O)(=O)c1cc(C(F)(F)F)ccc1-n1ncc(-c2cc(C(F)(F)F)cc(C(F)(F)F)c2)c1N [Compound 1-28] | 100% |
| CCS(=O)(=O)c1cc(C(F)(F)F)ccc1-c1cn(-c2ccc(OC(F)(F)F)cc2)nn1 [Compound 5-2] | 100% |
| CCS(=O)(=O)c1cc(C(F)(F)F)ccc1-n1ncc(-c2ccc(OC(F)(F)F)cc2)c1F [Compound 1-23] | 100% |
| CCS(=O)(=O)c1cccnc1-n1ncc(-c2ccc(SC(F)(F)F)cc2)c1N [Compound 2-12] | 100% |
| CCS(=O)(=O)c1cc(C(F)(F)F)cnc1-n1ncc(-c2ccc(C(F)(F)F)nc2)c1C [Compound 2-5] | 100% |
| CCS(=O)(=O)c1cc(C(F)(F)F)ccc1-n1cc(-c2ccc(C(F)(F)F)nc2)cn1 [Compound 1-15] | 100% |
| CCS(=O)(=O)c1cccnc1-n1ncc(-c2ccc(OC(F)(F)F)cc2)c1C [Compound 2-8] | 100% |
| CC[S+]([O-])c1cc(C(F)(F)F)ccc1-n1ncc(-c2ccc(C(F)(F)F)cc2)c1C (stereo not shown) [Compound 1-9] | 100% |
| CCS(=O)(=O)c1cc(C(F)(F)F)cnc1-n1ncc(-c2ccc(OC(F)(F)F)cc2)c1C [Compound 2-7] | 100% |
| CCS(=O)(=O)c1cc(C(F)(F)F)ccc1-n1ncc(-c2ccc(C(F)(F)F)cc2)c1N [Compound 1-5] | 100% |
| CCS(=O)(=O)c1cc(C(F)(F)F)ccc1-n1ncc(-c2ccc(OC(F)(F)F)cc2)c1C [Compound 1-19] | 100% |
| CCSc1cc(C(F)(F)F)ccc1-n1cc(-c2ccc(C(F)(F)F)cc2)cn1 [Compound 1-1] | 100% |

| Compound | insect mortality rate |
| --- | --- |
| CCS(=O)(=O)c1cc(C(F)(F)F)ccc1-n1cc(-c2ccc(C(F)(F)F)cc2F)cn1 [Compound 1-16] | 100% |
| CCS(=O)(=O)c1cc(C(F)(F)F)ccc1-n1ncc(-c2cc(C(F)(F)F)cc(C(F)(F)F)c2)c1I [Compound 1-30] | 100% |
| CCS(=O)(=O)c1cc(C(F)(F)F)ccc1-c1cnn(-c2ccc(C(F)(F)F)cc2)c1Br [Compound 3-3] | 100% |
| CCS(=O)(=O)c1cc(C(F)(F)F)ccc1-n1ncc(-c2ccc(C(F)(C(F)(F)F)C(F)(F)F)cc2)c1N [Compound 1-35] | 100% |
| CCS(=O)(=O)c1cc(C(F)(F)F)ccc1-n1ncc(-c2ccc(C(F)(F)C(F)(F)F)nc2)c1C [Compound 1-47] | 100% |
| CCS(=O)(=O)c1cc(C(F)(F)F)ccc1-n1ncc(-c2ccc(OC(F)(F)F)c(Cl)c2)c1N [Compound 1-38] | 100% |
| CCS(=O)(=O)c1cccnc1-n1ncc(-c2ccc(C(F)(F)C(F)(F)F)cc2)c1N [Compound 2-11] | 100% |
| CCS(=O)(=O)c1cc(C(F)(F)F)ccc1-n1ncc(-c2ccc(SC(F)(F)F)cc2)c1N [Compound 1-32] | 100% |
| CCS(=O)(=O)c1cc(C(F)(F)F)ccc1-n1ncc(-c2ccc(C(F)(F)F)c(Cl)c2)c1N [Compound 1-36] | 100% |
| CCS(=O)(=O)c1cc(C(F)(F)F)ccc1-n1ncc(-c2cc(C(F)(F)F)cc(C(F)(F)F)c2)c1C [Compound 1-26] | 100% |
| CCS(=O)(=O)c1cccnc1-n1ncc(-c2ccc(C(F)(F)C(F)(F)F)nc2)c1C [Compound 2-16] | 100% |
| CCS(=O)(=O)c1cc(C(F)(F)F)ccc1-n1ncc(-c2ccc(C(F)(F)F)nc2)c1C [Compound 1-24] | 100% |
| CCS(=O)(=O)c1cc(C(F)(F)F)ccc1-n1cc(-c2ccc(C(F)(F)F)cc2)cn1 [Compound 1-2] | 100% |
| CCS(=O)(=O)c1cccnc1-n1ncc(-c2ccc(OC(F)(F)F)cc2)c1N [Compound 2-10] | 100% |
| CCSc1cc(C(F)(F)F)ccc1-c1cn(-c2ccc(OC(F)(F)F)cc2)nn1 [Compound 5-1] | 100% |
| CCS(=O)(=O)c1cc(C(F)(F)F)ccc1-n1cc(-c2ccc(C(F)(F)C(F)(F)F)cc2)cn1 [Compound 1-22] | 100% |
| CCSc1cc(C(F)(F)F)ccc1-n1ncc(-c2ccc(C(F)(F)F)cc2)c1N [Compound 1-4] | 100% |
| CCS(=O)(=O)c1cc(C(F)(F)F)ccc1-n1cc(-c2cc(C(F)(F)F)cc(C(F)(F)F)c2)cn1 [Compound 1-27] | 100% |
| CCS(=O)(=O)c1cc(C(F)(F)F)ccc1-n1ncc(-c2ccc(C(F)(F)C(F)(F)F)nc2)c1C#N [Compound 1-52] | 100% |
| CCS(=O)(=O)c1cc(C(F)(F)F)cnc1-n1ncc(-c2ccc(OC(F)(F)F)cc2)c1N [Compound 2-4] | 100% |

Tested on: Culex pipiens
Assay: Efficacy test against Culex pipiens
Format: in vivo
Conditions: 2 ppm; first-instar larvae; after 1 day
Method: as §1, §2
Emulsion (I) was diluted with water so that the concentration of the compound of the present invention reaches 2 ppm to prepare a chemical solution for test. 20 first-instar larvae of Culex pipiens were released into 100 ml of the chemical solution for test, then the number of dead insects was calculated after 1 day was passed, and the insect mortality rate was calculated by the formula. The test was repeated twice.

| Compound | insect mortality rate |
| --- | --- |
| CCS(=O)(=O)c1cc(C(F)(F)F)ccc1-n1cc(-c2ccc(OC(F)(F)F)cc2)cn1 [Compound 1-14] | 100% |
| CCS(=O)(=O)c1cc(C(F)(F)F)ccc1-n1ncc(-c2ccc(OC(F)(F)F)cc2)c1C [Compound 1-19] | 100% |
| CCS(=O)(=O)c1cc(C(F)(F)F)ccc1-n1ncc(-c2ccc(C(F)(F)F)nc2)c1C [Compound 1-24] | 100% |
